Starred links: 1 amine or outer side, 2 acyl side, 3 side chain; linkers in the order of their positions; H or OH if unused. Non-standard residues stand in square brackets, D forms with d. Residues, ends and D or L forms follow the SMILES beside them. *: point of attachment. Desaminohistidyl = O=C(CCc1c[nH]cn1)*; X1 = c1ccc(C(CCN*)c2ccccc2)cc1; NHPhenethyl = c1ccc(CCN*)cc1; X2 = O=C(C1CCCC1N[*:1])[*:2]; Isovaleryl = CC(C)CC(=O)*; NHBn = c1ccc(CN*)cc1
Molecular target: Peptidyl-prolyl cis-trans isomerase A (Homo sapiens, UniProt P62937)
Assay: In vitro inhibition of human Cyclophilin A/protein interaction.

Peptidyl-prolyl cis-trans isomerase A, sequence (P62937 whole entry): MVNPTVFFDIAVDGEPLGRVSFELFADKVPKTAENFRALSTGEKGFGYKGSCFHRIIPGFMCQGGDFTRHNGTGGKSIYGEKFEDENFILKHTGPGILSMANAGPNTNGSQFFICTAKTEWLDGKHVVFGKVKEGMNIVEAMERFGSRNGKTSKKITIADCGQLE

Molecule	IC50
CC(=O)N[C@H](C(=O)N[C@@H](Cc1c[nH]cn1)C(=O)N[C@@H](C)C(=O)NCC(=O)N1CCC[C@@H]1C(=O)N[C@@H](C(=O)N[C@@H](C)C(N)=O)c1ccccc1)C(C)C	820 µM
CC[C@H](C)[C@H](NC(=O)[C@@H]1CCCN1C(=O)CNC(=O)[C@H](C)NC(=O)[C@H](Cc1cnc[nH]1)NC(=O)[C@@H](NC(C)=O)C(C)C)C(=O)NCCC(c1ccccc1)c1ccccc1 (Ac-VHAGPI-X1)	365 µM
CC[C@H](C)[C@H](NC(=O)[C@@H]1CCCN1C(=O)CNC(=O)[C@H](C)NC(=O)[C@H](Cc1c[nH]cn1)NC(=O)[C@@H](NC(C)=O)C(C)C)C(=O)NCCc1ccccc1 (Ac-VHAGPI-NHPhenethyl)	325 µM
CC[C@H](C)[C@H](NC(=O)[C@@H]1CCCN1C(=O)CNC(=O)[C@H](C)NC(=O)CCc1cnc[nH]1)C(=O)N[C@@H](C)C(N)=O (Desaminohistidyl-AGPIA-NH2)	2600 µM
CC(=O)N[C@H](C(=O)N[C@@H](Cc1c[nH]cn1)C(=O)N[C@@H](C)C(=O)NCC(=O)N1CCC[C@H]1C(=O)NC1CCCC1C(=O)N[C@@H](C)C(N)=O)C(C)C (some centres undefined) (Ac-VHAGP[X2]A-NH2)	680 µM
H-HAGPIA-OH	2000 µM
CC[C@H](C)[C@H](NC(=O)[C@@H]1CCCN1C(=O)CNC(=O)[C@H](C)NC(=O)[C@H](Cc1cnc[nH]1)NC(=O)CC(C)C)C(=O)N[C@@H](C)C(N)=O (Isovaleryl-HAGPIA-NH2)	165 µM
CC(C)CC(=O)N[C@@H](Cc1cnc[nH]1)C(=O)N[C@@H](C)C(=O)NCC(=O)N1CCC[C@H]1C(=O)NC1CCCC1C(=O)NCc1ccccc1 (some centres undefined) (Isovaleryl-HAGP[X2]-NHBn)	90 µM
CC(=O)N[C@H](C(=O)N[C@@H](Cc1c[nH]cn1)C(=O)N[C@@H](C)C(=O)NCC(=O)N1CCC[C@@H]1C(=O)N[C@H](C(=O)N[C@@H](C)C(N)=O)c1ccccc1)C(C)C	970 µM

From ChEMBL document CHEMBL1135656, “Molecular docking and 3D-QSAR studies on gag peptide analogue inhibitors interacting with human cyclophilin A” (J Med Chem, 2002)
